Biological target: full length MPS1 (Homo sapiens (Human), UniProt P33981)
Test: Measurement of inhibition of MPS1 kinase (Caliper EZ reader, fluorescent labelled peptide H236)
Format: biochemical
Conditions: full length MPS1 12.5 nM or 3 nM, peptide H236 5 μM, ATP 10 μM, 60 min at room temperature
Method: The reaction was carried out for 60 min at room temperature and stopped by the addition of buffer (10 μl) containing 20 mM EDTA, 0.05% (v/v) Brij-35, in 0.1M HEPES-buffered saline (Free acid, Sigma, UK). The plate was read on a Caliper EZ reader II (Caliper Life Sciences).
The reader provides a Software package (‘Reviewer’) which converts the peak heights into % conversion by measuring both product and substrate peak and also allows selection of control well which represent 0% and 100% inhibition respectively. The % inhibition of the compounds is calculated relative to the means of selected control wells. IC50s are determined by testing the compounds at a range of concentrations from 0.25 nM-100 μM. The % inhibitions at each concentration are then fitted to a 4 parameter logistic fit: y=(a+((b−a)/(1+((c/x^d)))) where a=asym min, b=asym max, c=IC50 and d=hill coefficient

Sequence of full length MPS1 (P33981 whole entry): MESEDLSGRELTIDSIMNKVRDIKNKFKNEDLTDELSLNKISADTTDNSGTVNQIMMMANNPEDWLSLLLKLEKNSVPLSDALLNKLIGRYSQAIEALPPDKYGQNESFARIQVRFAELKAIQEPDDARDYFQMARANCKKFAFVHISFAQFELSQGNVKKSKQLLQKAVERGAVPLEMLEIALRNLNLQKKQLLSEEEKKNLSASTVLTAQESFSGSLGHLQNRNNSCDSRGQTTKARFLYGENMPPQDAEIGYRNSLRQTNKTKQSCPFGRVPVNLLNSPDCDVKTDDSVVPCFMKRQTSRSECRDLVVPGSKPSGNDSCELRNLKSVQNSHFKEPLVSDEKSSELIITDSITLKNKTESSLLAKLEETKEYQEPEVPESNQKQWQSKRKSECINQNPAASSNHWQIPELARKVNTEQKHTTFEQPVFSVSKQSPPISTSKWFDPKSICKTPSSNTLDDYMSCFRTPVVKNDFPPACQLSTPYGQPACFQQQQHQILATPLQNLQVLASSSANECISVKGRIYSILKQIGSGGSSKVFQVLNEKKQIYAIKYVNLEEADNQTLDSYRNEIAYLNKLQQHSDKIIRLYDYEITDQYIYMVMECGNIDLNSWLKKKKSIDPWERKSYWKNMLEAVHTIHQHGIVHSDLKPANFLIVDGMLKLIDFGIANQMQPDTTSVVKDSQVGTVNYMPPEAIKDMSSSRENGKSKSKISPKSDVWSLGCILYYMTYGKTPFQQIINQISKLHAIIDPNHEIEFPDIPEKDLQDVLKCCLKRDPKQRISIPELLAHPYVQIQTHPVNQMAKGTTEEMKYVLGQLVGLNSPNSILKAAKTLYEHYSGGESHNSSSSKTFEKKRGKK

SMILES	IC50
COc1cc(-c2cnc(C)n2C)ccc1Nc1cc2cc(-c3cnn(CC(C)O)c3)ccc2cn1 (racemic) [Example 38, 1-(4-(3-((4-(1,2-Dimethyl-1H-imidazol-5-yl)-2-methoxyphenyl)amino)isoquinolin-6-yl)-1H-pyrazol-1-yl)propan-2-ol]	2 nM
COc1cc(-c2cnc(C)n2C)ccc1Nc1cc2cc(-c3cnn(CC4COC(C)(C)O4)c3)ccc2cn1 (racemic) [Example 40, 6-(1-((2,2-Dimethyl-1,3-dioxolan-4-yl)methyl)-1H-pyrazol-4-yl)-N-(4-(1,2-dimethyl-1H-imidazol-5-yl)-2-methoxyphenyl)isoquinolin-3-amine]	6 nM
COc1cc(-c2cnc(C)n2C)ccc1Nc1cc2cc(-c3cnn(C(C)C(C)(C)O)c3)ccc2cn1 (racemic) [Example 68, 3-(4-(3-((4-(1,2-Dimelhyl-1H-imidazol-5-yl)-2-methoxyphenyl)amino)isoquinolin-6-yl)-1H-pyrazol-1-yl)-2-methylbutan-2-ol]	6 nM
CCC(O)Cn1cc(-c2ccc3cnc(Nc4ccc(C(=O)N5CC(OC)C5)cc4OC)cc3c2)cn1 (racemic) [Example 71, (4-((6-(1-(2-Hydroxybutyl)-1H-pyrazol-4-yl)isoquinolin-3-yl)amino)-3-methoxyphenyl)(3-methoxyazetidin-1-yl)methanone]	4 nM
COc1cc(C(=O)N2CC(OC)C2)ccc1Nc1cc2cc(-c3cnn(CC(O)C(C)C)c3)ccc2cn1 (racemic) [Example 73, (4-((6-(1-(2-Hydroxy-3-methylbutyl)-1H-pyrazol-4-yl)isoquinolin-3-yl)amino)-3-methoxy-phenyl)(3-methoxyazetidin-1-yl)methanone]	4 nM
COc1cc(C(=O)N2CC(OC)C2)ccc1Nc1cc2cc(-c3cnn(CC(O)C(F)(F)F)c3)ccc2cn1 (racemic) [Example 75, (3-Methoxy-4-((6-(1-(3,3,3-trifluoro-2-hydroxypropyl)-1H-pyrazol-4-yl)isoquinolin-3-yl)amino)-phenyl)(3-methoxyazetidin-1-yl)methanone]	3 nM
COc1cc(C(=O)N2CC(OC)C2)ccc1Nc1cc2cc(-c3cnn(C(C)C(C)(C)O)c3)ccc2cn1 (racemic) [Example 76, (4-((6-(1-(3-Hydroxy-3-methylbutan-2-yl)-1H-pyrazol-4-yl)isoquinolin-3-yl)amino)-3-methoxyphenyl)(3-methoxyazetidin-1-yl)methanone]	5 nM
COCC(O)Cn1cc(-c2ccc3cnc(Nc4ccc(C(=O)N5CC(OC)C5)cc4OC)cc3c2)cn1 (racemic) [Example 78, (4-((6-(1-(2-Hydroxy-3-methoxypropyl)-1H-pyrazol-4-yl)isoquinolin-3-yl)amino)-3-methoxyphenyl)(3-methoxyazetidin-1-yl)methanone]	17 nM
COCC(Cn1cc(-c2ccc3cnc(Nc4ccc(C(=O)N5CC(OC)C5)cc4OC)cc3c2)cn1)OC (racemic) [Example 79, (4-((6-(1-(2,3-Dimethoxypropyl)-1H-pyrazol-4-yl)isoquinolin-3-yl)amino)-3-methoxyphenyl)(3-methoxyazetidin-1-yl)methanone]	9 nM
COc1cc(C(=O)N2CC(OC)C2)ccc1Nc1cc2cc(-c3cnn(CC(O)CO)c3)ccc2cn1 (racemic) [Example 81, (4-((6-(1-(2,3-Dihydroxypropyl)-1H-pyrazol-4-yl)isoquinolin-3-yl)amino)-3-methoxyphenyl)(3-methoxyazetidin-1-yl)methanone]	3 nM
COc1cc(C(=O)N2CC(OC)C2)ccc1Nc1cc2cc(-c3cnn(C4COCC4O)c3)ccc2cn1 (racemic) [Example 82, (4-((6-(1-(4-Hydroxytetrahydrofuran-3-yl)-1H-pyrazol-4-yl)isoquinolin-3-yl)amino)-3-methoxyphenyl)(3-methoxyazetidin-1-yl)methanone]	5 nM
COc1cc(C(=O)N2CC(OC)C2)ccc1Nc1cc2cc(-c3cnn(C4CCCCC4O)c3)ccc2cn1 (racemic) [Example 85, (4-((6-(1-(2-Hydroxycyclohexyl)-1H-pyrazol-4-yl)isoquinolin-3-yl)amino)-3-methoxyphenyl)(3-methoxyazetidin-1-yl)methanone]	15 nM
COc1cc(-c2cnc(C)n2C)ccc1Nc1cc2cc(-c3cnn(CC(C)O)c3)ccc2cn1 (single isomer, unassigned) [Example 98, 1-(4-(3-((4-(1,2-dimethyl-1H-imidazol-5-yl)-2-methoxyphenyl)amino)isoquinolin-6-yl)-1H-pyrazol-1-yl)propan-2-ol]	3 nM
COc1cc(-c2cnc(C)n2C)ccc1Nc1cc2cc(-c3cnn(CC(C)O)c3)ccc2cn1 (single isomer, unassigned) [Example 99, 1-(4-(3-((4-(1,2-dimethyl-1H-imidazol-5-yl)-2-methoxyphenyl)amino)isoquinolin-6-yl)-1H-pyrazol-1-yl)propan-2-ol]	5 nM
COc1cc(-c2cnc(C)n2C)ccc1Nc1cc2cc(-c3cnn(CC4CCOCC4)c3)ccc2cn1 [Example 1, N-(4-(1,2-dimethyl-1H-imidazol-5-yl)-2-methoxyphenyl)-6-(1-((tetrahydro-2H-pyran-4-yl)methyl)-1H-pyrazol-4-yl)isoquinolin-3-amine]	2 nM
COc1cc(-c2cnc(C)n2C)ccc1Nc1cc2cc(-c3cnn(CC4CC4)c3)ccc2cn1 [Example 2, 6-(1-(Cyclopropylmethyl)-1H-pyrazol-4-yl)-N-(4-(1,2-dimethyl-1H-imidazol-5-yl)-2-methoxyphenyl)isoquinolin-3-amine]	1 nM
COc1cc(-c2cnc(C)n2C)ccc1Nc1cc2cc(-c3cnn(CC(F)F)c3)ccc2cn1 [Example 3, 6-(1-(2,2-Difluoroethyl)-1H-pyrazol-4-yl)-N-(4-(1,2-dimethyl-1H-imidazol-5-yl)-2-methoxyphenyl)isoquinolin-3-amine]	2 nM
COc1cc(-c2cnc(C)n2C)ccc1Nc1cc2cc(-c3cnn(C4CCN(C(=O)OC(C)(C)C)CC4)c3)ccc2cn1 [Example 4, tert-Butyl 4-(4-(3-((4-(1,2-dimethyl-1H-imidazol-5-yl)-2-methoxyphenyl)amino)isoquinolin-6-yl)-1H-pyrazol-1-yl)piperidine-1-carboxylate]	110 nM
COc1cc(-c2cnc(C)n2C)ccc1Nc1cc2cc(-c3cnc(C)n3C)ccc2cn1 [Example 5, 6-(1,2-Dimethyl-1H-imidazol-5-yl)-N-(4-(1,2-dimethyl-1H-imidazol-5-yl)-2-methoxyphenyl)-isoquinolin-3-amine]	5 nM
COc1cc(-c2cnc(C)n2C)ccc1Nc1cc2cc(-c3cnco3)ccc2cn1 [Example 6, N-(4-(1,2-dimethyl-1H-imidazol-5-yl)-2-methoxyphenyl)-6-(oxazol-5-yl)isoquinolin-3-amine]	4 nM
COc1cc(-c2cnc(C)n2C)ccc1Nc1cc2cc(-c3ccncc3)ccc2cn1 [Example 7, N-(4-(1,2-dimethyl-1H-imidazol-5-yl)-2-methoxyphenyl)-6-(pyridin-4-yl)isoquinolin-3-amine]	145 nM
COc1cc(-c2cnc(C)n2C)ccc1Nc1cc2cc(-c3ccc(N(C)C)nc3)ccc2cn1 [Example 8, N-(4-(1,2 dimethyl-1H-imidazol-5-yl)-2-methoxyphenyl)-6-(6-(dimethylamino)pyridin-3-yl)isoquinolin-3-amine]	108 nM
COc1cc(-c2cnc(C)n2C)ccc1Nc1cc2cc(-c3cncs3)ccc2cn1 [Example 9, N-(4-(1,2-dimethyl-1H-imidazol-5-yl)-2-methoxyphenyl)-6-(thiazol-5-yl)isoquinolin-3-amine]	4 nM
CCn1cc(-c2ccc3cnc(Nc4ccc(-c5cnc(C)n5C)cc4OC)cc3c2)cn1 [Example 10, N-(4-(1,2-dimethyl-1H-imidazol-5-yl)-2-methoxyphenyl)-6-(1-ethyl-1H-pyrazol-4-yl)isoquinolin-3-amine]	7 nM
COc1cc(-c2cnc(C)n2C)ccc1Nc1cc2cc(-c3ccc(C)nc3)ccc2cn1 [Example 11, N-(4-(1,2-dimethyl-1H-imidazol-5-yl)-2-methoxyphenyl)-6-(6-methylpyridin-3-yl)isoquinolin-3-amine]	2 nM
COc1cc(-c2cnc(C)n2C)ccc1Nc1cc2cc(-c3ccc(N(C)C(=O)OC(C)(C)C)nc3)ccc2cn1 [Example 12, tert-Butyl (5-(3-((4-(1,2-dimethyl-1H-imidazol-5-yl)-2-methoxyphenyl)amino)isoquinolin-6-yl)pyridin-2-yl)(methyl)carbamate]	713 nM
COc1cc(-c2cnc(C)n2C)ccc1Nc1cc2cc(-c3sc(C)nc3C)ccc2cn1 [Example 13, N-(4-(1,2-dimethyl-1H-imidazol-5-yl)-2-methoxyphenyl)-6-(2,4-dimethylthiazol-5-yl)isoquinolin-3-amine]	97 nM
COCCn1cc(-c2ccc3cnc(Nc4ccc(-c5cnc(C)n5C)cc4OC)cc3c2)cn1 [Example 14, N-(4-(1,2-dimethyl-1H-imidazol-5-yl)-2-methoxyphenyl)-6-(1-(2-methoxyethyl)-1H-pyrazol-4-yl)isoquinolin-3-amine]	20 nM
COc1cc(-c2cnc(C)n2C)ccc1Nc1cc2cc(-c3cnn(C(C)C)c3)ccc2cn1 [Example 15, N-(4-(1,2-dimethyl-1H-imidazol-5-yl)-2-methoxyphenyl)-6-(1-isopropyl-1H-pyrazol-4-yl)isoquinolin-3-amine]	3 nM
COc1cc(-c2cnc(C)n2C)ccc1Nc1cc2cc(-c3cccnc3)ccc2cn1 [Example 16, N-(4-(1,2-dimethyl-1H-imidazol-5-yl)-2-methoxyphenyl)-6-(pyridin-3-yl)isoquinolin-3-amine]	3 nM

— patent US9334286B2, “Pharmacologically active compounds” (Cancer Research Technology Limited, priority 2012, dated 2016)
